Activity calls are given as the source filed them. No cut-off for these calls is given here.
Columns and labels:
[1] = target: T1, Tyrosine-protein kinase JAK2 (Homo sapiens, UniProt O60674); experiment: Inhibition of N-terminal GST-fused recombinant JAK2 (831 to 1132 residues) (unknown origin) expressed in insect cells using 5FAM-GEEPLYWSFPAKKK-NH2 as substrate by microfluidic capillary electrophoresis method
[2] = target: T2, Tyrosine-protein kinase JAK1 (Homo sapiens, UniProt P23458); experiment: Inhibition of N-terminal GST-fused human recombinant JAK1 (866 to 1154 residues) expressed in insect cells using FITC-C6-KKHTDDGYMPMSPGVA-NH2 as substrate by microfluidic capillary electrophoresis method
T2 sequence (P23458 whole entry, the tested form may be a part): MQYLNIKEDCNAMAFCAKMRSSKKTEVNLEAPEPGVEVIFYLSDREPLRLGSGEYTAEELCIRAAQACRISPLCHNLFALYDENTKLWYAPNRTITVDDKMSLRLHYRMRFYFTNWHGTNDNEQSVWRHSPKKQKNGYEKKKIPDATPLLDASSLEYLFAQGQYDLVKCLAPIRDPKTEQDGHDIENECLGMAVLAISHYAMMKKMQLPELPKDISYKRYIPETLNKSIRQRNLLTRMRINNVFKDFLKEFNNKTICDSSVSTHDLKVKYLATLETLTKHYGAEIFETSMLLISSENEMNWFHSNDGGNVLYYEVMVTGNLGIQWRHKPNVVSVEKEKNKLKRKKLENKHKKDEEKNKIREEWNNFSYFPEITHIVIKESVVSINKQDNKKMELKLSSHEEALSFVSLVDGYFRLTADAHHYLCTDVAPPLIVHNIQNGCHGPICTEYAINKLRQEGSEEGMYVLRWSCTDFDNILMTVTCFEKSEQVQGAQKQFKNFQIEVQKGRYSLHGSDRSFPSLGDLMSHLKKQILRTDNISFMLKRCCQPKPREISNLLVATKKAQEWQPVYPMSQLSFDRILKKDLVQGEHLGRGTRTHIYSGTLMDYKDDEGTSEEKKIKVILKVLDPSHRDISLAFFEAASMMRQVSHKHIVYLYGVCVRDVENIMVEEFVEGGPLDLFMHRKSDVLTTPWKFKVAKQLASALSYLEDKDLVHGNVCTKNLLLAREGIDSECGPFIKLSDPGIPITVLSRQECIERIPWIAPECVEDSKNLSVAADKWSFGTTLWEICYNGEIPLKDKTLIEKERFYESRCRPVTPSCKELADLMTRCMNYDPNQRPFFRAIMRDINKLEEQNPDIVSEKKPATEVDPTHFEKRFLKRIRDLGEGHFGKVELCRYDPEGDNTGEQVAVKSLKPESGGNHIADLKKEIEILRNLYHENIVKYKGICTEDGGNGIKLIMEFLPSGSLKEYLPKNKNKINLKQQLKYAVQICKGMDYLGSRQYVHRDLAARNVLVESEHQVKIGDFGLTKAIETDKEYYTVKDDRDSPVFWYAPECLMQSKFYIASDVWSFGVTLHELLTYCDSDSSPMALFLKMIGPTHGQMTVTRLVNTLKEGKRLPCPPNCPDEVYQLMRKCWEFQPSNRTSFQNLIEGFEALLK

[3] = target: T3, Tyrosine-protein kinase JAK3 (Homo sapiens, UniProt P52333); experiment: Inhibition of N-terminal GST-fused recombinant JAK3 (781 to 1124 residues) (unknown origin) expressed in insect cells using 5FAM-GEEPLYWSFPAKKK-NH2 as substrate by microfluidic capillary electrophoresis method
T3 sequence (P52333 whole entry): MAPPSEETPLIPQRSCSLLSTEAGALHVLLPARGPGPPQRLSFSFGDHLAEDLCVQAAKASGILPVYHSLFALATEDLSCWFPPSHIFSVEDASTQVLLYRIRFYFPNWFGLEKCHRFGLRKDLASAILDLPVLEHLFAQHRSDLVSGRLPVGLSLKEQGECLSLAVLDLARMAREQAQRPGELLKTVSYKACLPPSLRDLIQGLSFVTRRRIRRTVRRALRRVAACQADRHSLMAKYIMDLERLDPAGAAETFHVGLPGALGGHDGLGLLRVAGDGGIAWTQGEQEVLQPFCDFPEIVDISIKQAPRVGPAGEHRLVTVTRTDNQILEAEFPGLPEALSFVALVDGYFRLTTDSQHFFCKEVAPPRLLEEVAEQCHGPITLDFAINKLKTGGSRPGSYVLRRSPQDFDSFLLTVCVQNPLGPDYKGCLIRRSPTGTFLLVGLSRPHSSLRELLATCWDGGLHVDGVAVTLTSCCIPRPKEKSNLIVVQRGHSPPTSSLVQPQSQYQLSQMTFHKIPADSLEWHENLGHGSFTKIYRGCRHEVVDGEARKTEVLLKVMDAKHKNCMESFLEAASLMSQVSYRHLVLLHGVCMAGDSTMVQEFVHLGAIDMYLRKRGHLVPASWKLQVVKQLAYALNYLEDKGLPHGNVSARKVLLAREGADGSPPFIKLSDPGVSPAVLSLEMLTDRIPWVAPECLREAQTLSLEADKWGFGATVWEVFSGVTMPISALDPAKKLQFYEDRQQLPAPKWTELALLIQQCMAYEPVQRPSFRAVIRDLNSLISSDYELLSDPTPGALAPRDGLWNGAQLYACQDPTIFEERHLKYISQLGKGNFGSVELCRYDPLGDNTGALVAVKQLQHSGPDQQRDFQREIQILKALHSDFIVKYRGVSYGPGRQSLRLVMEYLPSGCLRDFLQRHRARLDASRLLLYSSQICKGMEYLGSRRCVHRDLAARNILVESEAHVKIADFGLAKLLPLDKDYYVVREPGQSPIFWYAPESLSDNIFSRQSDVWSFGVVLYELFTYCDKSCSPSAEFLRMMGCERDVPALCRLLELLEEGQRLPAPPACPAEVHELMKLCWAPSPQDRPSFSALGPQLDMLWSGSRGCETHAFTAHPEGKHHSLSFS

[4] = target: T2, Tyrosine-protein kinase JAK1; experiment: Inhibition of JAK1 in human NCI-H1975 cells assessed as reduction in STAT3 phosphorylation after 2 hrs; type: cell-based
[5] = target: Aurora kinase B (Homo sapiens, UniProt Q96GD4); experiment: Inhibition of GST-INCENP activated N-terminal 6His-tagged human recombinant full length Aurora B (1 to 344 residues) expressed in baculovirus expression system using 5FAM-LRRASLG as substrate by microfluidic capillary electrophoresis method
Sequence of Aurora kinase B (Q96GD4 whole entry, the tested form may be a part): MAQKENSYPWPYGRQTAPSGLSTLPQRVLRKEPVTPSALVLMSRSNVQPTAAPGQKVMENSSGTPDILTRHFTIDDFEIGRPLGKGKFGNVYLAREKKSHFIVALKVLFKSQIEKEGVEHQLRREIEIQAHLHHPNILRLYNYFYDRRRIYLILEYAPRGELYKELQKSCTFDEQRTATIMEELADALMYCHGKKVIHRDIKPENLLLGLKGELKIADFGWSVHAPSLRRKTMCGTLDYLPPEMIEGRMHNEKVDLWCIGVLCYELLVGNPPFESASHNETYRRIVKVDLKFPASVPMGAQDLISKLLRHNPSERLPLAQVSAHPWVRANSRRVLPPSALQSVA

[6] = target: Cyclin-dependent kinase 2/cyclin E1 (Homo sapiens, UniProt P24941); experiment: Inhibition of N-terminal 6His-tagged human recombinant full length CDK2 (1 to 304 residues)/Cyclin E1 (1 to 410 residues) expressed in insect cells using FL-Ahx-QSPKKG-CONH2 as substrate by microfluidic capillary electrophoresis method
[7] = Cell cycle arrest in human SW620 cells assessed as accumulation at Sub G1 phase at 10 uM after 24 hrs by propidium iodide staining-based flow cytometric analysis (reference value: 1.6%); type: functional; conditions: SW-620
[8] = Cell cycle arrest in human SW620 cells assessed as accumulation at G1 phase at 10 uM after 24 hrs by propidium iodide staining-based flow cytometric analysis (reference value: 61.4%); type: functional; conditions: SW-620
[9] = Cell cycle arrest in human SW620 cells assessed as accumulation at S phase at 10 uM after 24 hrs by propidium iodide staining-based flow cytometric analysis (reference value: 13.9%); type: functional; conditions: SW-620
[10] = Cell cycle arrest in human SW620 cells assessed as accumulation at G2/M phase at 10 uM after 24 hrs by propidium iodide staining-based flow cytometric analysis (reference value: 17.4%); type: functional; conditions: SW-620
[11] = Cell cycle arrest in human SW620 cells assessed as multi-nuclear cells at 10 uM after 24 hrs by propidium iodide staining-based flow cytometric analysis (reference value: 5%); type: functional; conditions: SW-620
[12] = Cell cycle arrest in human SW620 cells assessed as accumulation at Sub G1 phase at 1 uM after 24 hrs by propidium iodide staining-based flow cytometric analysis (reference value: 1.6%); type: functional; conditions: SW-620
[13] = Cell cycle arrest in human SW620 cells assessed as accumulation at G1 phase at 1 uM after 24 hrs by propidium iodide staining-based flow cytometric analysis (reference value: 61.4%); type: functional; conditions: SW-620
[14] = Cell cycle arrest in human SW620 cells assessed as accumulation at S phase at 1 uM after 24 hrs by propidium iodide staining-based flow cytometric analysis (reference value: 13.9%); type: functional; conditions: SW-620
[15] = Cell cycle arrest in human SW620 cells assessed as accumulation at G2/M phase at 1 uM after 24 hrs by propidium iodide staining-based flow cytometric analysis (reference value: 17.4%); type: functional; conditions: SW-620
[16] = Cell cycle arrest in human SW620 cells assessed as multi-nuclear cells at 1 uM after 24 hrs by propidium iodide staining-based flow cytometric analysis (reference value: 5%); type: functional; conditions: SW-620
[17] = target: T2, Tyrosine-protein kinase JAK1; experiment: Inhibition of JAK1 in human NCI-H1975 cells assessed as reduction in STAT3 phosphorylation at 0.003 to 3 uM after 2 hrs by Western blot analysis; type: cell-based
[18] = target: T1, Tyrosine-protein kinase JAK2; experiment: Inhibition of JAK2 in human HEL 92.1.7 cells assessed as reduction in STAT5 phosphorylation after 2 hrs by Western blot analysis; type: cell-based
[19] = tested on: Mus musculus; experiment: Inhibition of JAK1-mediated STAT3 phosphorylation in human NCI-H1975 cells xenografted in NCr nude mouse at 200 mg/kg, po administered as single dose after 1.5 hrs by Western blot analysis; type: functional
[20] = tested on: Mus musculus; experiment: Inhibition of JAK1-mediated STAT3 phosphorylation in human NCI-H1975 cells xenografted in NCr nude mouse at 200 mg/kg, po administered as single dose after 8 hrs by Western blot analysis; type: functional, organism-based
[21] = target: Non-receptor tyrosine-protein kinase TYK2 (Homo sapiens, UniProt P29597); experiment: Inhibition of N-terminal 6His-tagged human recombinant Tyk2
Sequence of Non-receptor tyrosine-protein kinase TYK2 (P29597 whole entry): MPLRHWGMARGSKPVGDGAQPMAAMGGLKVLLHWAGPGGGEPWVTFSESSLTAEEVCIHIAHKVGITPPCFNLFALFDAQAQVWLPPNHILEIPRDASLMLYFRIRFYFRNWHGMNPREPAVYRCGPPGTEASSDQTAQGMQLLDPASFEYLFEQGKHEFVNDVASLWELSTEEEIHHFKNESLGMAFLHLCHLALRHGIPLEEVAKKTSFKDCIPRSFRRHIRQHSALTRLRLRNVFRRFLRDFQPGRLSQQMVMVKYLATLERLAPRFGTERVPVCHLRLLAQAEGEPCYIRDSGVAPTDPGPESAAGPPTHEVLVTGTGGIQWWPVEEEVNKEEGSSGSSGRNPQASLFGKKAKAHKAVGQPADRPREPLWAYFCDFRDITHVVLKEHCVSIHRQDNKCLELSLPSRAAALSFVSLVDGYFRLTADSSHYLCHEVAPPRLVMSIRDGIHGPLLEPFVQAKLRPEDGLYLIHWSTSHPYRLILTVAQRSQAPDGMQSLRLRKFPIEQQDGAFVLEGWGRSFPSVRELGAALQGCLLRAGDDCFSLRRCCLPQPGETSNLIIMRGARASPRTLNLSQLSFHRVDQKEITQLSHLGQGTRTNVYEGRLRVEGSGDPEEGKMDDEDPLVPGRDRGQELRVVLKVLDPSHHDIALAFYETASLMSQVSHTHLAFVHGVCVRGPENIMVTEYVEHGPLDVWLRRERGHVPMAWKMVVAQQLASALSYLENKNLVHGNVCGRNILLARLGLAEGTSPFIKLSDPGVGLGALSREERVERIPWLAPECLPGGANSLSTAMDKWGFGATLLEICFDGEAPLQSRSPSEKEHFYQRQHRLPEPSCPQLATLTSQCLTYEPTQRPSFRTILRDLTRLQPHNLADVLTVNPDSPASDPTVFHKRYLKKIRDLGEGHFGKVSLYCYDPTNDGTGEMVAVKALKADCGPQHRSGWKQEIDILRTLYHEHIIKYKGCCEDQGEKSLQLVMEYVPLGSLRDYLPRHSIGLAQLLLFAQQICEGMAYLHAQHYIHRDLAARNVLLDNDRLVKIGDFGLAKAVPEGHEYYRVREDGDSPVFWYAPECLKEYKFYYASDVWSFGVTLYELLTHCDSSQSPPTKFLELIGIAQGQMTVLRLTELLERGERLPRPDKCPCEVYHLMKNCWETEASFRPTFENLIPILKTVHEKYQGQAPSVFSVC

T1 sequence (O60674 whole entry, the tested form may be a part): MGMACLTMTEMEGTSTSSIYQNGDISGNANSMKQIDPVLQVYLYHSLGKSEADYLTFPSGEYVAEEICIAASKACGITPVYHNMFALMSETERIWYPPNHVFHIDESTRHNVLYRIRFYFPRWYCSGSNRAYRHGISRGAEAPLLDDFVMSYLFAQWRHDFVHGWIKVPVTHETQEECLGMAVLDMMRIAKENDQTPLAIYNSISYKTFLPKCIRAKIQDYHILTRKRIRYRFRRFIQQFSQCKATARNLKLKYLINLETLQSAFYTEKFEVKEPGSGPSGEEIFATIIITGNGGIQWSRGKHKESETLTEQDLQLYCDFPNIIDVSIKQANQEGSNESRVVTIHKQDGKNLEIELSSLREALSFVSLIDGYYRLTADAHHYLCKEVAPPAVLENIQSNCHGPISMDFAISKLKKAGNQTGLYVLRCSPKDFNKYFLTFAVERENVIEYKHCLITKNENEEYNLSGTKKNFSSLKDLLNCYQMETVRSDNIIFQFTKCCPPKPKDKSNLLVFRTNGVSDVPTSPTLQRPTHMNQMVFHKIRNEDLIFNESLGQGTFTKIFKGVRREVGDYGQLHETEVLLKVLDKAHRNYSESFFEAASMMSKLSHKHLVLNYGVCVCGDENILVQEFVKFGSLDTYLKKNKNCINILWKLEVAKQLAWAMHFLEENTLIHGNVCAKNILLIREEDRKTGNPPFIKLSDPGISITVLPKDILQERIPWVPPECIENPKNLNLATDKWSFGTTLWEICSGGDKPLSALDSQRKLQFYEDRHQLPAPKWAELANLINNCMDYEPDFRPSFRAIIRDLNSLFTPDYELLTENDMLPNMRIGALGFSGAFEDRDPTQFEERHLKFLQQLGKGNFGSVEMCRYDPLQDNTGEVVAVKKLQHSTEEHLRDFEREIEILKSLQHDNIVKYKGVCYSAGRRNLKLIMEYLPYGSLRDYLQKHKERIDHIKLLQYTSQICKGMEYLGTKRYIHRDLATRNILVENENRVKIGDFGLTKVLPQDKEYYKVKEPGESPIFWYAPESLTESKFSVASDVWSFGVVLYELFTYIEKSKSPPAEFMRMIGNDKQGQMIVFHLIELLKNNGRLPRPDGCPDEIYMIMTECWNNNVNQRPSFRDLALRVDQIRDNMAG

With `COc1cc(F)c(-c2nc3c(NCC4CCNCC4)c(Cl)cnc3[nH]2)cc1OC` the IC50 [1] was greater than 22000 nM, the IC50 [2] was 22 nM and the IC50 [3] was 8300 nM. It also gave an IC50 [4] of 39 nM, an IC50 [5] of 132 nM and an IC50 [6] of 114 nM. The Activity [7] was 10.8%, the Activity [8] was 30.3% and the Activity [9] was 7%. For the same compound, the Activity [10] was 38.9%, the Activity [11] was 13.1% and the Activity [12] was 2.5%. For the same compound, the Activity [13] was 56.1%, the Activity [14] was 6.5% and the Activity [15] was 27%. The Activity [16] was 7.9%, the inhibition [17] was “Active” and the inhibition [18] was “inactive”. The inhibition in vivo at 200 mg/kg [19] was 80%, the inhibition [20] was “inactive” and the IC50 [21] was 28000 nM.
